The supplement of paper PMC10307832

Legend:
Test in all cases: relative viability (nuclei count vs DMSO), 5 days (fraction); higher = more cells survive
[1] = compound: C1CC1C(=O)NC2=NNC3=C2C=CC(=C3)C4=CC(=CC=C4)C(=O)NC5CC5 [XMD13-2] + CC(=O)c1c(C)c2cnc(Nc3ccc(N4CCNCC4)cn3)nc2n(C2CCCC2)c1=O [Palbociclib] (partner 0.5 µM)
In short: (§1)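 Lung cancer cell lines were seeded in 1536-well plates and dosed by pin tool the next day, with either a single drug or a fixed anchor-drug dose combined with five library-drug doses (not always all listed) spaced in √10 steps. Five days later, one step fixed the cells and stained their nuclei (final 0.05% Triton X-100, 1% formaldehyde, 1 ug/ml Hoechst), and nuclei were counted on 4× images. Relative viability is the nuclei count in treated wells divided by the count in vehicle wells, and each value is the median of duplicate plates.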

[2] = compound: C1CC1C(=O)NC2=NNC3=C2C=CC(=C3)C4=CC(=CC=C4)C(=O)NC5CC5 [XMD13-2] + O=C(c1cc(Cc2n[nH]c(=O)c3ccccc23)ccc1F)N1CCN(C(=O)C2CC2)CC1 [Olaparib] (partner 8 µM)
In short: as §1

[3] = compound: Cc1nc(Nc2ncc(C(=O)Nc3c(C)cccc3Cl)s2)cc(N2CCN(CCO)CC2)n1 [Dasatinib] + CC1(C)CCC(c2ccc(Cl)cc2)=C(CN2CCN(c3ccc(C(=O)NS(=O)(=O)c4ccc(N[C@H](CCN5CCOCC5)CSc5ccccc5)c(S(=O)(=O)C(F)(F)F)c4)cc3)CC2)C1 [Navitoclax] (partner 0.5 µM)
In short: as §1

[4] = compound: C1CC1C(=O)NC2=NNC3=C2C=CC(=C3)C4=CC(=CC=C4)C(=O)NC5CC5 [XMD13-2] + CS(=O)(=O)N1CCN(Cc2cc3nc(-c4cccc5[nH]ncc45)nc(N4CCOCC4)c3s2)CC1 [Pictilisib] (partner 1 µM)
In short: as §1

UMC-11
relative viability ([1]; first compound 0.05 µM): 0.356
relative viability ([1]; first compound 0.1581 µM): 0.313
relative viability ([1]; first compound 0.5 µM): 0.349
relative viability ([1]; first compound 1.581 µM): 0.33
relative viability ([1]; first compound 5 µM): 0.334
relative viability ([2]; first compound 0.05 µM): 0.528
relative viability ([2]; first compound 0.1581 µM): 0.407
relative viability ([2]; first compound 0.5 µM): 0.39
relative viability ([2]; first compound 1.581 µM): 0.364
relative viability ([2]; first compound 5 µM): 0.318
relative viability ([3]; first compound 0.005 µM): 0.308
relative viability ([3]; first compound 0.01581 µM): 0.247
relative viability ([3]; first compound 0.05 µM): 0.275
relative viability ([3]; first compound 0.1581 µM): 0.246
relative viability ([3]; first compound 0.5 µM): 0.241
relative viability ([4]; first compound 0.05 µM): 0.943
relative viability ([4]; first compound 0.1581 µM): 0.8
relative viability ([4]; first compound 0.5 µM): 0.704
relative viability ([4]; first compound 1.581 µM): 0.803
relative viability ([4]; first compound 5 µM): 0.71
